In US9701681B2, “Fused ring heteroaryl compounds and their use as Trk inhibitors” (CMG Pharmaceutical Co., Ltd., priority 2014, dated 2017) one finds IC50 data, which are given here for twelve compounds.

Structures are written as SMILES.

The target in the assay is T1, TRK A, B & C kinase.
T1 construct: fused on or other part: Carna's Trk kinases are usually GST-tagged cytoplasmic domains
Kind of assay: TRK A, B & C kinase assay (ADP-Glo / HTRF KinEASE-TK). The format is biochemical. The note with it: ADP-Glo or HTRF KinEASE-TK kit, isoform not specified, read-out: IC50 (nM) Enzymatic assay. The protocol:
ADP-Glo assay kit was purchased from Promega. poly (Glu, Tyr), Magnesium sulfate, Bovine serum albumin (BSA) and dimethylsulfoxide(DMSO) were purchased from Sigma-Aldrich. Tris-HCl buffer was purchased from BD Gentest. HTRF KinEASE-TK kit was purchased from cisbio. TRK A, B & C kinase was purchased from Carna bioscience.
Kinase assay was performed for Chemical Compounds 1-61 using two methods using luminescent ADP-Glo assay kit (Promega) and HTRF KinEASE-TK assay kit (cisbio). The luminescent ADP-Glo assay kit (Promega) measures ADP formed from a kinase reaction. ADP converted into ATP, which is then converted into light by Ultra-Glo luciferase. The HTRF KinEASE-TK assay kit (cisbio) measures tyrosine kinase activities using one substrate and a universal detection system.
ADP-Glo Assay Kit (Promega)
The protein kinase assay was performed for Chemical Compounds 1-61 at […] concentrations are 0.4 ng/ul of TrKA, 0.5 ng/ul of TrKB and 3 ng/ul of TrKC, respectively), 5 μL of 1 ug/ul stock solution of poly(glu, Tyr), 5 μL of compounds or assay buffer, 5 μL of ATP (125 μM stock solution).
The assay was started by incubating the reaction mixture in a 96-well plate at 30° C. for 1 hr. After the incubation, the assay was terminated by the addition of 25 […] Detection Reagent was added, and the 96-well plate was shaken and then incubated for additional 30 min at ambient temperature. The 96-well reaction plate was then read on an Enspire plate reader. The IC50 values were derived through a curve fitting using SigmaPlot.
HTRF KinEASE-TK Assay Kit (Cisbio)
The HTRF KinEASE-TK assay was performed for Chemical Compounds 1-61 in 384-well low volume microplate (Greiner). The HTRF KinEASE-TK assay format involves the two steps. The first step is kinase reaction step. This kinase reaction step was performed at RT (room temperature) in final volume of 10 ul according to the following assay reaction recipe: 10 ul of kinase mixture (Kinase (2 ul)+ATP (2 ul)+Substrate (2 ul)+Compound (4 ul)). Kinase final concentrations were 0.3 ng/ul of TRKA, 0.1 ng/ul of TRKB, 0.03 ng/ul of TRKC, respectively. ATP final concentrations were 14.7 uM (TRKA), 4.77 uM (TRKB), 25.6 uM (TRKC) respectively. TK-substrate final concentration was 0.3 ng/ul. The mixtures exposed to Dose response concentration (DRC) compound from 0 to 100 nM for 40 min. During the kinase reaction step, the kinase reaction was started by the addition of ATP. Kinase phosphorylates the substrate.
The second is detection step. 10 ul of detection reagents (5 ul Sa-XL 665 in EDTA+5 ul TK Antibody-Eu in EDTA) was added to kinase mixture. This step was performed at room temperature for 1 hr. The detection reagent detects phosphorylated substrates.
Finally 384-well reaction plate was then read on FlexStation 3 machine. The fluorescence was measured at 620 nm (Cryptate) and 665 nm (XL665). A ratio is calculated ([…]/620)×10^4 for each well. The IC50 value was derived through a curve fitting using GraphPad Prism. Table 1 below includes the results of the assays.
A general note: ADP-Glo first removes unused ATP, then detects ADP through luciferase.
For orientation: IC50 means the point on the concentration scale where inhibition reaches its midpoint. On to `Fc1ccc(F)c([C@H]2CCCN2c2ccn3ncc(-c4nnc(N5CCNCC5)o4)c3n2)c1` [Chemical Compound 18, (R)-2-(5-(2-(2,5-difluorophenyl)pyrrolidin-1-yl)pyrazolo[1,5-a]pyrimidin-3-yl)-5-(piperazin-1-yl)-1,3,4-oxadiazole], for which the 50% inhibitory concentration (IC50) was > 100 nM.

With `Fc1ccc(F)c([C@H]2CCCN2c2ccn3ncc(-c4nnc(-c5cn[nH]c5)s4)c3n2)c1` [Chemical Compound 19, (R)-2-(5-(2-(2,5-difluorophenyl)pyrrolidin-1-yl)pyrazolo[1,5-a]pyrimidin-3-yl)-5-(1H-pyrazol-4-yl)-1,3,4-thiadiazole], the IC50 is < 10 nM.

In the case of `Fc1ccc(F)c([C@H]2CCCN2c2ccn3ncc(-c4nnc(-c5cc[nH]n5)s4)c3n2)c1` [Chemical Compound 20, (R)-2-(5-(2-(2,5-difluorophenyl)pyrrolidin-1-yl)pyrazolo[1,5-a]pyrimidin-3-yl)-5-(1H-pyrazol-3-yl)-1,3,4-thiadiazole], the half-maximal inhibitory concentration (IC50) was > 100 nM.

For `O=C(Nc1nnc(-c2cnn3ccc(N4CCC[C@@H]4c4cc(F)ccc4F)nc23)s1)c1ccccc1` [Chemical Compound 21, (R)—N-(5-(5-(2-(2,5-difluorophenyl)pyrrolidin-1-yl)pyrazolo[1,5-a]pyrimidin-3-yl)-1,3,4-thiadiazol-2-yl)benzamide], the IC50 is > 100 nM.

For `Fc1ccc(F)c([C@H]2CCCN2c2ccn3ncc(-c4nnc(N5CCNCC5)s4)c3n2)c1` [Chemical Compound 22, (R)-2-(5-(2-(2,5-difluorophenyl)pyrrolidin-1-yl)pyrazolo[1,5-a]pyrimidin-3-yl)-5-(piperazin-1-yl)-1,3,4-thiadiazole], the concentration for half-maximal inhibition (IC50) is < 10 nM.

`Fc1ccc(F)c([C@H]2CCCN2c2ccn3ncc(-c4nnc(N5CCCNCC5)s4)c3n2)c1` [Chemical Compound 23, (R)-2-(1,4-diazepan-1-yl)-5-(5-(2-(2,5-difluorophenyl)pyrrolidin-1-yl)pyrazolo[1,5-a]pyrimidin-3-yl)-1,3,4-thiadiazole]: the 50% inhibitory concentration (IC50) is < 10 nM.

Consider `Fc1ccc(F)c([C@H]2CCCN2c2ccn3ncc(-c4nnc(C5CCNCC5)o4)c3n2)c1` [Chemical Compound 24, (R)-2-(5-(2-(2,5-difluorophenyl)pyrrolidin-1-yl)pyrazolo[1,5-a]pyrimidin-3-yl)-5-(piperidin-4-yl)-1,3,4-oxadiazole], for which the concentration for half-maximal inhibition (IC50) is < 10 nM.

As to `Fc1ccc(F)c([C@H]2CCCN2c2ccn3ncc(-c4cn(C5CCNCC5)nn4)c3n2)c1` [Chemical Compound 33, (R)-5-(2-(2,5-difluorophenyl)pyrrolidin-1-yl)-3-(1-(piperidin-4-yl)-1H-1,2,3-triazol-4-yl)pyrazolo[1,5-a]pyrimidine], the IC50 was < 10 nM.

Turning to `Fc1ccc(F)c([C@H]2CCCN2c2ccn3ncc(-c4cn(C5CCCNC5)nn4)c3n2)c1` (stereo partly drawn) [Chemical Compound 34, 5-((R)-2-(2,5-difluorophenyl)pyrrolidin-1-yl)-3-(1-(piperidin-3-yl)-1H-1,2,3-triazol-4-yl)pyrazolo[1,5-a]pyrimidine], the IC50 was < 10 nM.

In the case of `Fc1ccc(F)c([C@H]2CCCN2c2ccn3ncc(-c4cn(C5CCNC5)nn4)c3n2)c1` (stereo partly drawn) [Chemical Compound 35, 5-((R)-2-(2,5-difluorophenyl)pyrrolidin-1-yl)-3-(1-(pyrrolidin-3-yl)-1H-1,2,3-triazol-4-yl)pyrazolo[1,5-a]pyrimidine], the half-maximal inhibitory concentration (IC50) was < 10 nM.

`O=C(Cn1cc(-c2cnn3ccc(N4CCC[C@@H]4c4cc(F)ccc4F)nc23)nn1)N1CCNCC1` [Chemical Compound 37, (R)-2-(4-(5-(2-(2,5-difluorophenyl)pyrrolidin-1-yl)pyrazolo[1,5-a]pyrimidin-3-yl)-1H-1,2,3-triazol-1-yl)-1-(piperazin-1-yl)ethan-1-one]: the half-maximal inhibitory concentration (IC50) is < 10 nM.

For `O=C1CN(C(=O)/C=C/c2cnn3ccc(N4CCC[C@@H]4c4cc(F)ccc4F)nc23)CCN1` [Chemical Compound 51, (R,E)-4-(3-(5-(2-(2,5-difluorophenyl)pyrrolidin-1-yl)pyrazolo[1,5-a]pyrimidin-3-yl)acryloyl)piperazin-2-one], the half-maximal inhibitory concentration (IC50) is < 10 nM.
